# Values quoted from earlier work as cited in patent US20260209864A1, “METHOD FOR DETERMINING AND IMPROVING THE POTENTIAL EFFICACY OF ANTICANCER TREATMENT” (ASSISTANCE PUBLIQUE - HOPITAUX DE PARIS, priority 2022, published 2026).
# Key:
# [1] = tested on: hematological malignancies; details: early administration during allo-HSCT
# [2] = after lung transplantation
smiles,measurement,setting,value
CC[C@H]1OC(=O)[C@H](C)[C@@H](O[C@H]2C[C@@](C)(OC)[C@@H](O)[C@H](C)O2)[C@H](C)[C@@H](O[C@@H]2O[C@H](C)C[C@H](N(C)C)[C@H]2O)[C@](C)(O)C[C@@H](C)CN(C)[C@H](C)[C@@H](O)[C@]1(C)O [azithromycin],risk of hematological malignancies relapses,[1],unexpectedly increased risk
same,prevention of BOS,[2],prevents BOS
